The results in this text go back to patent US20180326022A1, “COMPOSITIONS AND METHODS FOR IMPROVING HEART FUNCTION AND TREATING HEART FAILURE” (The Trustees of the University of Pennsylvania, priority 2017, published 2018).

Structures are written as SMILES.

Format in all cases: cell-based
The test system of one series is detyrosinated tubulin. In words: Western blotting of cardiomyocyte lysates (TTL, α-, detyr-, tyr-tubulin). Conditions: rat cardiomyocytes; PTL treatment; shTTL; short term EpoY. Here is the method:
Viral constructs were permitted to express for 24-72 hours with Moi=100-200. Parthenolide (Fisher Scientific NC9013142) treatment was carried out at room temperature for 2 hours at 10 μM. All experiments were performed within 48 hours of isolation, except those involving shTTL, which were allowed 72 hours to improve knockdown efficiency.
For analysis of proteins expression levels quantitative Western blots were performed using infrared fluorescence imaging on an Odyssey Imager (LI-COR). Cell homogenates were prepared in ice-cold IGEPAL lysis buffer. After 1 freezing cycle lysates were spun at 18,000×g for 5 min. Aliquots of supernatants were mixed with 4× sample buffer (LI-COR, 928-40004) containing 10% BME, boiled for 6 min., and resolved on sodium dodecyl sulfate (SDS)-polyacrylamide gel electrophoresis Tris-glycine gels (Bio-Rad). Proteins were transferred to a membrane on Mini Trans-Blot Cell (Bio-Rad), blocked 1 h in Odyssey Blocking Buffer (TBS) (LI-COR, 927-50000), and probed with the corresponding primary antibody (see list below) for 2 h at room temperature. Membranes were then rinsed with TBST 4 times for 5 min, and incubated with secondary antibodies (below) for 1.5 h at room temperature. Membranes were rinsed again with TBST and then imaged on Odyssey Imager. Image analysis was performed using Image Studio Lite software (LI-COR). Fluorescent band intensity was always normalized to GAPDH loading control. Analysis of human tissue samples for levels of detyrosinated tubulin was performed blinded to the experimental groups.
Background: In western blotting, separated proteins are transferred to a membrane and probed.

A further series deals with desmin. Kind of series: Microtubule co-sedimentation with desmin. The note with it: after PTL treatment; rat cardiomyocytes and C2C12 cells. Here is the method: Microtubules were isolated for co-sedimentation from isolated cardiomyocytes or C2C12 cells following treatment with parthenolide. Cells were homogenized at 37° C. in 400 μl of microtubule-stabilizing buffer (MSB) by passage through 25G syringe needle. Homogenate was centrifuged to remove cell debris at 2000×g for 5 min at 37° C. and pellet was resuspended in RIPA buffer containing 5 mM CaCl2. Supematant containing free and polymerized tubulin was loaded on a cushion of 10% sucrose in MSB and centrifuged in SW-60 rotor at 100000×g for 30 min at 37° C. Supernatant was saved, pellet (polymerized MT fraction) was resuspended in 0° C. RIPA buffer containing 5 mM CaCl2 and incubated on ice for 10 min. All samples were then centrifuged at 14000×g for 5 min at 0° C. and supernatant was measured by Bradford assay against a BSA (Sigma) standard and boiled in 12-40 μl of 1× loading buffer (Li-COR, 928-40004) prior to western blotting.

Series [1] concerns human myocytes. Kind of series: Nanoindentation stiffness measurements. Conditions: failing human myocytes; 10 μM, 2 hours. Here is the method: (§1) Viable myocytes were concentrated by gravity (5-7 min) and supernatant was aspirated to remove dead cells. Myocytes were resuspended in NT solution containing 1 mM Ca^2+ and concentrated by gravity (5-7 min) again. Cardiomyocytes used acutely were maintained in NT solution for up to 6 hours. Myocytes were treated with 10 μM parthenolide (Fisher Scientific NC9013142 or Sigma P0667) or 10 μM colchicine (Sigma) at room temperature in NT solution for 2 hours. Experiments were performed within 6 hours of isolation, except for those involving viral transduction in cultured cells.
MatTek glass bottom dish was coated 5 μl of 0.5 mg/ml laminin and air dried for 10 min. Culture medium was F-10 (1×) Nutrient Mixture (Ham) [+] L-Glutamine (Life Technologies, 11550-043) supplemented with insulin-transferrin selenium-X (Gibco, 51500-056), 20 mM HEPES, 1 μg/μl primocin (Invivogen, ant-pm-1), 0.4 mM extra CaCl2, 5% FBS, 25 μM cytochalasin D (Cayman, 11330). Viable myocytes were concentrated and a proper amount of medium was added in culture so that neighboring cells were not in direct contact. […]
Mechanical properties at the microscopic scale were measured using nanoindentation (Piuma, Optics11, The Netherlands). […] The Young's moduli were calculated automatically by the software, by fitting the force vs. indentation curve to the Hertz equation. […]

For series [2], the system named is human myocytes. In words: Calcium measurements in human myocytes. The protocol: as §1
Calcium measurements were carried out as described in Example 1 with the following modifications. Myocytes were loaded with 1 μM Fluo-3-acetoxymethyl ester (Invitrogen) and 15% Pluronic F127 (a poloxamer made by BASF, Florham Park, N.J., USA) for 15 minutes. Cells were scanned using a 488-nm argon ion laser in confocal line-scan mode at 0.909 ms/line. Cells were electrically paced at 0.5 Hz at room temperature for 30 s to achieve steady state; five steady-state transients of each myocyte were averaged, pooled in groups and analyzed for calcium transient properties. The measured fluorescence (F) throughout the transient was normalized to the resting fluorescence prior to stimulation (F0) to normalize for heterogeneity in dye loading.

Setting [3] is: NF human myocytes, suggested off-target effect.

For `C=C1C(=O)O[C@H]2[C@H]1CC/C(C)=C/CC[C@@]1(C)O[C@@H]21` [PTL, 4,5-epoxygermacra-1(10),11(13)-dien-12,6-olactone], in the series on detyrosinated tubulin, the “alpha / total tubulin levels (western blot)” value was “no significant change” and the “detyrosinated tubulin (western blot)” value is reported as “significant drop”. In the series on desmin, the “amount of desmin associated with the MTs” value is recorded as “directly proportional to the amount of MT detyrosination”. Moreover, the “viscoelasticity (Emax and EΔ)” value with human myocytes [1] is on record as “robustly reduced viscoelasticity”. In the series with human myocytes [2] (setting [3]), the “[Ca2+]i amplitude” value is recorded as “reduced” and the “[Ca2+]i transient decay phase” value was “prolonged”. In addition, the “impaired [Ca2+]i cycling” value in the series with human myocytes [2] (failing human myocytes) is on record as “neither colch nor PTL treatment improved”. Besides, the “F0 (baseline fluo3 intensity) compared to initial levels” value in the series on human myocytes [2] (human myocytes) is recorded as “elevated”.
